Assay results reported in patent US10329542B2, “HBV RNAse H purification and enzyme inhibitors” (Saint Louis University, priority 2012, dated 2019).
Like-named read-outs stand apart in the source and are kept apart here.

What was measured:
HIV-1 RNAseH = HIV-1 RNAseH (Human immunodeficiency virus type 1 group M subtype B, UniProt P04585); details: read-out: IC50 against the HIV RNAseH; cited from earlier work
[1] = molecular target: T1, HBV genotype D RNAseH (HRHPL) (Hepatitis B virus genotype D subtype ayw, UniProt P03156, INS679M); experiment: Oligonucleotide-directed RNAseH cleavage assay, HBV genotype D; format: biochemical; details: class by concentration giving inhibition (10, 20, 60 μM)
T1 construct: HRHPL contains HBV genotype D (Genbank V01460) polymerase residues 684-845; made in house; host or cells: E. coli BL21 codon+
Description: (§1) For the oligonucleotide-directed RNAseH cleavage assay (Gong et al., 2001), 6 μl protein extract (typical protein concentration 2.8 mg/ml) was mixed with 0.5 μg internally ^32P-labeled DRF+ RNA (nucleotides 2401-2605 of the duck HBV genome plus 60 nucleotides of flanking sequences from pBluescript) and 3 μg oligonucleotide D2507- or its corresponding negative control D2526+ on ice in 20 μl under the conditions in Table 1. Some reactions in FIG. 5 employed oligonucleotide D2543M-Sal or its D2453+ negative control as indicated. The reactions were incubated at 42° C. for 90 min. and terminated by addition of Laemmli protein loading buffer and boiling. The samples were resolved by 12% SDS-PAGE, the gels were stained with Coomassie blue to monitor protein loading, and labeled RNA was detected by autoradiography. Candidate inhibitors were dissolved in DMSO and added at the indicated concentrations during assembly of the reactions. Control reactions lacking the compounds contained DMSO as a vehicle control. The RNAseH autoradiograms were scanned and quantified with ImageJ.
(§2) Oligonucleotide-directed RNAseH cleavage assays (Gong et al., 2001) were performed as described (Tavis et al., 2013). Briefly, HBV RNAseH extracts were mixed with a 264 nt-long internally ^32P-labeled RNA plus an excess of a complementary DNA oligonucleotide or its inverse-complement as a negative control in a final concentration of 65 mM Tris pH 8.0, 190 mM NaCl, 5 mM MgCl2, 5 mM dTT, 0.05% NP40, and 6% glycerol. βTJ was dissolved in DMSO and added at the indicated concentrations; the final concentration of DMSO in all reactions was 1%. The reactions were incubated at 42° C. for 90 min. and terminated by addition of Laemmli protein electrophoresis buffer. The samples were resolved by SDS-PAGE, labeled RNA was detected by autoradiography, the autoradiograms were scanned, and the RNA cleavage products were quantified with ImageJ (National Institutes of Health). IC50 values were calculated by non-linear regression using GraphPad Prism (GraphPad Software, Inc.).

HBV genotype C RNAseH = experiment: Oligonucleotide-directed RNAseH cleavage assay, HBV genotype C; format: biochemical, Hepatitis B virus; details: class by concentration giving inhibition (10, 20, 60 μM)
Description: as §1, with “ImageJ. The oligonucleotides were: D2526+([…]; SEQ ID NO:8), D2507-([…]; SEQ ID NO:9), D2453+([…]; SEQ ID NO:10), and D2543M-Sal ([…]; SEQ ID NO:11).” for “ImageJ.”
Incremental improvements were developed in extraction of the HBV RNAseH from the bacterial cell pellets since the data were generated for Examples 1 and 2. Key among these was shifting from using a cup sonicator to a probe sonicator and reducing the duration of the sonication period from 3×60 second bursts to 3×20 second bursts. When the […] genotype C clone that had inconsistent activity under the old extraction conditions (FIG. 6C) was isolated under these conditions, it became consistently and robustly active (FIG. 16).

rat hepatocytes = details: cited from earlier work
human RNAseH1 = molecular target: T2, human RNAseH1 (Homo sapiens, UniProt O60930); experiment: Oligonucleotide-directed RNAseH assay, recombinant human RNAseH1; format: biochemical; details: class by concentration giving inhibition (10, 20, 60 μM)
T2 construct: hexahistidine (N); made in house; host or cells: E. coli BL21 codon+
T2 sequence (O60930 1-286): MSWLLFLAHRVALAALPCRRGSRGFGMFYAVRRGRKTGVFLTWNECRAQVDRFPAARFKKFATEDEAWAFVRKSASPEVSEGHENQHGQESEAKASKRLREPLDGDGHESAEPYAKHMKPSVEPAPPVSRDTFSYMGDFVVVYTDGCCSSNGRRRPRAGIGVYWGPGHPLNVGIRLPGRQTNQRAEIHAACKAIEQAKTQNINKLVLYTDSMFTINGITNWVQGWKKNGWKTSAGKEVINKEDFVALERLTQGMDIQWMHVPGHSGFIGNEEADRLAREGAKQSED
Description: as §1, with “ImageJ. The oligonucleotides were: D2526+([…]; SEQ ID NO:8), D2507-([…]; SEQ ID NO:9), D2453+([…]; SEQ ID NO:10), and D2543M-Sal ([…]; SEQ ID NO:11).” for “ImageJ.”
Therefore, the inventors cloned the human RNAseH1 with an N-terminal hexahistidine tag, expressed it in E. coli, and purified the protein by nickel affinity chromatography. […] This enzyme was active in the oligonucleotide-directed and fluorescent RNAseH assays (FIG. 10B and data not shown). To determine how inhibition of human RNAseH1 compared to inhibition of the HBV RNAseH, the inventor titrated the RNAaseH1 enzyme to yield similar levels of activity as the HBV enzyme, and then the inventor directly compared the ability of compounds #8-12 to inhibit human RNAseH1 and HRHPL at 10 μM. […] Therefore, it is possible to inhibit the HBV RNAseH without inhibiting human RNAseH1.
as §2

HBV [2] = experiment: HBV genomic replication assays (Table 2); format: cell-based, Hepatitis B virus; details: class by active concentration
Description: Huh7 cells were maintained in Dulbecco's modified Eagle's medium with 10% fetal bovine serum at 37° C. in 5% CO2. Cells were seeded into 60 mm dishes and transfected at 70% confluency with 2.6 μg of plasmids using TransIT-LT1 (Mirus, Inc.). Test compounds were added the morning following transfection at 10 or 50 μM, and fresh medium containing the compounds was provided every 1-2 days. Four or five days post-transfection HBV cores were isolated by lysis of the cells in 10 mM Tris pH 7.5, 1 mM EDTA, 0.25% NP40, 50 mM NaCl, and 8% sucrose followed by sedimentation through a 30% sucrose cushion as described (Travis, et al., 1998). Viral DNAs were isolated from cytoplasmic core particle preparations by proteinase K digestion followed by phenol/chloroform extraction as described (Gong et al., 2001). Duplicate aliquots of the nucleic acids were treated with 2 U E. coli DNAse-free RNAseH (Invitrogen) at 37° C. for 30 min. or were mock treated. The nucleic acid samples were resolved by electrophoresis on 1.2% agarose gels and detected by Southern blotting with ^32P-labeled HBV DNA as a probe. […]

HBV [3] = experiment: Quantitative PCR screen of HBV plus-polarity DNA accumulation; format: cell-based, Hepatitis B virus; details: 60, 20, or 6.7 μM; DNA isolated day 3
Description: This assay was employed to screen 7 compounds for their ability to suppress HBV replication (FIG. 17). […] Fresh medium containing compound was provided on days 1 and 2, and capsid-associated HBV DNAs were isolated on day 3. HBV plus-strand DNAs were measured using the cross-gap TaqMan PCR assay.
Plus-polarity preferential quantitative TaqMan PCR for the HBV DNA was conducted employing forward primer […] […] PCR was conducted on purified HBV capsid-derived nucleic acids for 40 cycles of 95° C. for 15 sec. and 65° C. for 1 min. employing the TaqMan universal PCR master mix (Applied Biosystems). Results were standardized against serial dilutions of cloned HBV DNA. The EC50 was estimated by linear regression of the real-time PCR data.

[4] = rat hepatocytes, Nakagawa and Tayama, 1998

Molecule | Activity vs. HBV Biochemical vs. gtD [1] | Activity vs. HBV Biochemical vs. gtC (HBV genotype C RNAseH) | Activity vs. human RNAseH1 (human RNAseH1) | other results
CC(C)c1ccccc(=O)c1O [α-thuaplicin, reference compound] |  |  |  | IC50 (HIV-1 RNAseH): 50 µM
CCn1cc(C(=O)O)c(=O)c2cc(Cc3ccccc3)c(OCCOC)cc21 [Compound 69] | ++ (++ inhibition at 20 μM) | + (+ inhibition at 60 μM) |  | 
CC(C)n1cc(C(=O)O)c(=O)c2ccccc21 [Compound 64] | + (+ inhibition at 60 μM) | − (− no inhibition at 60 μM) |  | 
C[C@@H]1CCO[C@H]2Cn3cc(C(=O)NCc4ccc(F)cc4F)c(=O)c(O)c3C(=O)N12 [Compound 73, Dolutegravir, reference compound] | + (+ inhibition at 60 μM) | − (− no inhibition at 60 μM) |  | 
O=c1cccccc1 [tropone, reference compound] |  |  |  | Mitochondrial toxicity (rat hepatocytes; [4]): mitochondrial toxicity has been reported
O=C1c2cccc3cccc(c23)C(=O)N1O [Compound 45] | − (− no inhibition at 60 μM) | + (+ inhibition at 60 μM) | − (− no inhibition at 60 μM) | Activity vs. HBV Genomic Replication (HBV [2]): − (− no activity at 60 μM)
O=c1cccccc1O [Compound 53, Tropolone] | ++ (++ inhibition at 20 μM) |  | − (− no inhibition at 60 μM) | Activity vs. HBV Genomic Replication (HBV [2]): − (− no activity at 60 μM); Suppression of HBV plus-polarity DNA accumulation (HBV [3]): inhibited accumulation of HBV plus-polarity DNA to lesser extents; Mitochondrial toxicity (rat hepatocytes): mitochondrial toxicity has been reported
Cn1c(N2CCCCS2(=O)=O)nc(C(=O)NCc2ccc(F)cc2)c(O)c1=O [Compound 72, reference compound] | ++ (++ inhibition at 20 μM) | + (+ inhibition at 60 μM) |  | 
O=c1ccc2ccccc2n1O [Compound 43] | − (− no inhibition at 60 μM) | + (+ inhibition at 60 μM) | − (− no inhibition at 60 μM) | 
CC(C)c1cccc(O)c(=O)c1 [Compound 47, beta-thujaplicin] | +++ (+++ inhibition at 10 μM) | − (− no inhibition at 60 μM) | − (− no inhibition at 60 μM) | Activity vs. HBV Genomic Replication (HBV [2]): − (− no activity at 60 μM); Suppression of HBV plus-polarity DNA accumulation (HBV [3]): did not suppress HBV plus-polarity DNA accumulation; Mitochondrial toxicity (rat hepatocytes; [4]): mitochondrial toxicity has been reported
CC(C)c1ccc(O)c(=O)cc1 [Compound 48] |  |  |  | Suppression of HBV plus-polarity DNA accumulation (HBV [3]): did not suppress HBV plus-polarity DNA accumulation
Cc1cc(C)c(C#N)c(=O)[nH]1 [Compound 20] | − (− no inhibition at 60 μM) | − (− no inhibition at 60 μM) |  | 
CCn1cc(C(=O)O)c(=O)c2cc(F)c(N3CCNCC3)nc21 [Compound 71, Enoxacin, reference compound] | − (− no inhibition at 60 μM) | − (− no inhibition at 60 μM) |  | 
Manicol [Compound 56] | +++ (+++ inhibition at 10 μM) | +++ (+++ inhibition at 10 μM) | − (− no inhibition at 60 μM) | Activity vs. HBV Genomic Replication (HBV [2]): + (+, activity detectable at >10 μM); Suppression of HBV plus-polarity DNA accumulation (HBV [3]): inhibited accumulation of HBV plus-polarity DNA to lesser extents; IC50 (HIV-1 RNAseH): 60 µM
